Reference: patent US12576099B2, “Ribose-modified cap analog and use thereof” (Beijing Youcare Kechuang Pharmaceutical Technology Co., Ltd., priority 2024, dated 2026)

How the values were obtained:
BALB/C mice = assay: In vivo imaging of Fluc-mRNA LNP expression in mice
Procedure: The LNP preparation containing 5 μg of cap analog-transcribed Fluc-mRNA was intramuscularly injected into female BALB/C mice aged 4 to 6 weeks and weighing 17 to 19 g. At specific time points after administration (6 hours, 12 hours, 24 hours, 48 hours, 96 hours, and 168 hours), the mice were intraperitoneally injected with fluorescence imaging substrate. The mice were then allowed to move freely for 5 minutes, followed by detection of the total radiation intensity of the protein expressed by LNP-carrying mRNA in the mice using an IVIS Spectrum small-animal in vivo imaging system (corresponding to the amount of protein expression).
In the in vivo imaging experiments in mice, the multiple of the total radiation intensity for each group of mice relative to the m6A group is shown in Table 8 (where the total radiation intensity is represented as the given value×10^8 p/s).

[1] = Characterization of lipid nanoparticles encapsulating Fluc-mRNA prepared from different cap structures; type: physicochemical; settings: for Particle size: LNP (YK-009/DSPC/cholesterol/DMG-PEG2000) with Fluc-mRNA transcribed using the named cap analog; for PDI: LNP with Fluc-mRNA transcribed using the named cap analog; for EE: encapsulation efficiency of LNP with Fluc-mRNA transcribed using the named cap analog
Procedure, shortened: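 LNPs of YK-009/DSPC/cholesterol/DMG-PEG2000 (49:10:39.5:1.5) made by microfluidic mixing with Fluc-mRNA in 50 mM citrate pH 4, lipid:mRNA ~15:1 w/w, then ultrafiltered into PBS and 0.2 μm filtered. Size and PDI by DLS (90°, 25 °C, triplicate); encapsulation efficiency by RiboGreen assay.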

[2] = 6 h, 5 μg Fluc-mRNA LNP intramuscular, mice
[3] = 12 h, 5 μg Fluc-mRNA LNP intramuscular, mice
[4] = 24 h, 5 μg Fluc-mRNA LNP intramuscular, mice
[5] = 48 h, 5 μg Fluc-mRNA LNP intramuscular, mice
[6] = 96 h, 5 μg Fluc-mRNA LNP intramuscular, mice
[7] = 168 h, 5 μg Fluc-mRNA LNP intramuscular, mice

SMILES	Multiple of total radiation intensity relative to m6A (BALB/C mice; 6 h)	Total radiation intensity (BALB/C mice; [2])	Multiple of total radiation intensity relative to m6A (BALB/C mice; 12 h)	Total radiation intensity (BALB/C mice; [3])	Multiple of total radiation intensity relative to m6A (BALB/C mice; 24 h)	Total radiation intensity (BALB/C mice; [4])	Multiple of total radiation intensity relative to m6A (BALB/C mice; 48 h)	Total radiation intensity (BALB/C mice; [5])	Multiple of total radiation intensity relative to m6A (BALB/C mice; 96 h)	Total radiation intensity (BALB/C mice; [6])	Total radiation intensity (BALB/C mice; [7])	Total radiation intensity (BALB/C mice; at 12 hours)	Total radiation intensity, times that of N-7113 (BALB/C mice; at 12 hours) [times]	Total radiation intensity, times that of YK-CAP-101 (BALB/C mice; at 12 hours) [times]	Total radiation intensity (BALB/C mice; at 48 hours)	Total radiation intensity, times that of N-7113 (BALB/C mice; at 48 hours) [times]	Total radiation intensity, times that of YK-CAP-101 (BALB/C mice; at 48 hours) [times]	Particle size [1] [nm]	PDI [1]	EE [1] [%]
CCN(CC)C(=O)[C@H]1[C@@H](O)[C@H]([n+]2cn(C)c3c(=O)[nH]c(N)nc32)O[C@@H]1COP(=O)(O)OP(=O)(O)OP(=O)(O)OC[C@H]1O[C@@H](n2cnc3c(N)ncnc32)[C@H](OC)[C@@H]1OP(=O)(O)OC[C@H]1O[C@@H](n2cnc3c(=O)[nH]c(N)nc32)[C@H](O)[C@@H]1O [YK-CAP-111]	3.7	8.61 ×108 p/s	4.4	9.34 ×108 p/s	4.2	2.75 ×108 p/s	3.8	1.95 ×108 p/s	1.1	0.27 ×108 p/s	0.03 ×108 p/s	9.34 ×10^8 p/s	2.2	9.7	1.95 ×10^8 p/s	4.0	10.3	78.33	0.053	95.1
CO[C@@H]1[C@H](OP(=O)(O)OC[C@H]2O[C@@H](n3cnc4c(=O)[nH]c(N)nc43)[C@H](O)[C@@H]2O)[C@@H](COP(=O)(O)OP(=O)(O)OP(=O)(O)OC[C@H]2O[C@@H]([n+]3cn(C)c4c(=O)[nH]c(N)nc43)[C@H](O)[C@@H]2C(C)F)O[C@H]1n1cnc2c(N)ncnc21 (stereo partly shown) [YK-CAP-109]	2.6	6.04 ×108 p/s	2.8	5.84 ×108 p/s	2.8	1.85 ×108 p/s	1.0	0.54 ×108 p/s	2.7	0.14 ×108 p/s	0.03 ×108 p/s							86.35	0.035	97.2
CO[C@@H]1[C@H](OP(=O)(O)OC[C@H]2O[C@@H](n3cnc4c(=O)[nH]c(N)nc43)[C@H](O)[C@@H]2O)[C@@H](COP(=O)(O)OP(=O)(O)OP(=O)(O)OC[C@H]2O[C@@H]([n+]3cn(C)c4c(=O)[nH]c(N)nc43)[C@H](O)[C@]2(C)NC(C)=O)O[C@H]1n1cnc2c(N)ncnc21 [YK-CAP-106]	2.5	5.88 ×108 p/s	3.2	6.85 ×108 p/s	2.7	1.76 ×108 p/s	1.0	0.53 ×108 p/s	2.6	0.11 ×108 p/s	0.03 ×108 p/s							68.24	0.048	97.1
COC[C@@H]1[C@H](OP(=O)(O)OC[C@H]2O[C@@H](n3cnc4c(=O)[nH]c(N)nc43)[C@H](O)[C@@H]2O)[C@@H](COP(=O)(O)OP(=O)(O)OP(=O)(O)OC[C@H]2O[C@@H]([n+]3cn(C)c4c(=O)[nH]c(N)nc43)[C@H](O)[C@@H]2O)O[C@H]1n1cnc2c(N)ncnc21 [YK-CAP-113]	2.6	6.07 ×108 p/s	3.6	7.63 ×108 p/s	3.1	2.02 ×108 p/s	2.5	1.29 ×108 p/s	1.2	0.31 ×108 p/s	0.04 ×108 p/s							79.34	0.043	96.1
CO[C@@H]1[C@H](OP(=O)(O)OC[C@H]2O[C@@H](n3cnc4c(=O)[nH]c(N)nc43)[C@H](O)[C@@H]2O)[C@@H](COP(=O)(O)OP(=O)(O)OP(=O)(O)OC[C@@]2(OC)O[C@@H]([n+]3cn(C)c4c(=O)[nH]c(N)nc43)[C@H](O)[C@@H]2O)O[C@H]1n1cnc2c(N)ncnc21 [compound 5227, reference compound]	1.0	2.38 ×108 p/s	0.7	1.45 ×108 p/s	0.8	0.53 ×108 p/s	0.9	0.48 ×108 p/s	0.9	0.07 ×108 p/s	0.02 ×108 p/s							83.34	0.028	94.9
